# Source: patent publication US10597390B2, “Indoles for use in influenza virus infection” (Janssen Sciences Ireland UC, priority 2014, dated 2020)
# Tested on: not listed separately
# Assay: in vitro
# Conditions: dog, TOX MDCK CC50
row,Compound,CC50 at 3 days [µM]
1,Cn1cc(C(=O)N[C@@H]2CCC[C@H](Nc3nc(-c4c[nH]c5c(F)cc(Cl)cc45)ncc3F)C2)cn1 [Compound 52],4.4
2,O=C(N[C@@H]1CCC[C@H](Nc2nc(-c3c[nH]c4c(F)cc(Cl)cc34)ncc2F)C1)c1cncnc1 [Compound 53],> 25
3,Nc1n[nH]c(C(=O)N[C@@H]2CCC[C@H](Nc3nc(-c4c[nH]c5c(F)cc(Cl)cc45)ncc3F)C2)n1 [Compound 54],10.4
4,O=C(N[C@@H]1CCC[C@H](Nc2nc(-c3c[nH]c4c(F)cc(Cl)cc34)ncc2F)C1)c1ncc(F)cc1F [Compound 55],6.6
5,CN(C)c1ccnc(C(=O)N[C@@H]2CCC[C@H](Nc3nc(-c4c[nH]c5c(F)cc(Cl)cc45)ncc3F)C2)c1 [Compound 56],10.7
6,Cn1cc(Br)nc1C(=O)N[C@@H]1CCC[C@H](Nc2nc(-c3c[nH]c4c(F)cc(Cl)cc34)ncc2F)C1 [Compound 57],5
7,O=C(N[C@@H]1CCC[C@H](Nc2nc(-c3c[nH]c4c(F)cc(Cl)cc34)ncc2F)C1)c1ncc[nH]1 [Compound 58],3.5
8,Nc1cc(C(=O)N[C@@H]2CCC[C@H](Nc3nc(-c4c[nH]c5c(F)cc(Cl)cc45)ncc3F)C2)n[nH]1 [Compound 59],7.8
9,CCn1nccc1C(=O)N[C@@H]1CCC[C@H](Nc2nc(-c3c[nH]c4c(F)cc(Cl)cc34)ncc2F)C1 [Compound 60],> 25
10,Cn1nccc1C(=O)N[C@@H]1CCC[C@H](Nc2nc(-c3c[nH]c4c(F)cc(Cl)cc34)ncc2F)C1 [Compound 61],> 25
11,CN1CCC[C@@H]1C(=O)N[C@@H]1CCC[C@H](Nc2nc(-c3c[nH]c4c(F)cc(Cl)cc34)ncc2F)C1 [Compound 62],6.9
12,O=C(N[C@@H]1CCC[C@H](Nc2nc(-c3c[nH]c4c(F)cc(Cl)cc34)ncc2F)C1)c1c[nH]cn1 [Compound 63],8.9
13,Cn1cncc1C(=O)N[C@@H]1CCC[C@H](Nc2nc(-c3c[nH]c4c(F)cc(Cl)cc34)ncc2F)C1 [Compound 64],> 25
14,Nc1nccc(C(=O)N[C@@H]2CCC[C@H](Nc3nc(-c4c[nH]c5c(F)cc(Cl)cc45)ncc3F)C2)n1 [Compound 65],> 25
15,Nc1cc(C(=O)N[C@@H]2CCC[C@H](Nc3nc(-c4c[nH]c5c(F)cc(Cl)cc45)ncc3F)C2)ncn1 [Compound 66],5.2
16,Cn1cc(C(=O)N[C@@H]2CCC[C@H](Nc3nc(-c4c[nH]c5c(F)cc(Cl)cc45)ncc3F)C2)nn1 [Compound 67],0.84
17,Cn1nc(N)cc1C(=O)N[C@@H]1CCC[C@H](Nc2nc(-c3c[nH]c4c(F)cc(Cl)cc34)ncc2F)C1 [Compound 68],21

# Tested on: influenza virus A/Taiwan/1/86 (H1N1)
# Assay: organism not typed
# Format: cell-based
# Conditions: MDCK, 72 h, CPE in MDCK cells, three days post-virus exposure, ATPlite
row,Compound,IC50 [µM]
1,Cn1cc(C(=O)N[C@@H]2CCC[C@H](Nc3nc(-c4c[nH]c5c(F)cc(Cl)cc45)ncc3F)C2)cn1 [Compound 52],0.002
2,O=C(N[C@@H]1CCC[C@H](Nc2nc(-c3c[nH]c4c(F)cc(Cl)cc34)ncc2F)C1)c1cncnc1 [Compound 53],0.02
3,Nc1n[nH]c(C(=O)N[C@@H]2CCC[C@H](Nc3nc(-c4c[nH]c5c(F)cc(Cl)cc45)ncc3F)C2)n1 [Compound 54],0.004
4,O=C(N[C@@H]1CCC[C@H](Nc2nc(-c3c[nH]c4c(F)cc(Cl)cc34)ncc2F)C1)c1ncc(F)cc1F [Compound 55],0.025
5,CN(C)c1ccnc(C(=O)N[C@@H]2CCC[C@H](Nc3nc(-c4c[nH]c5c(F)cc(Cl)cc45)ncc3F)C2)c1 [Compound 56],0.006
6,Cn1cc(Br)nc1C(=O)N[C@@H]1CCC[C@H](Nc2nc(-c3c[nH]c4c(F)cc(Cl)cc34)ncc2F)C1 [Compound 57],0.01
7,O=C(N[C@@H]1CCC[C@H](Nc2nc(-c3c[nH]c4c(F)cc(Cl)cc34)ncc2F)C1)c1ncc[nH]1 [Compound 58],0.001
8,Nc1cc(C(=O)N[C@@H]2CCC[C@H](Nc3nc(-c4c[nH]c5c(F)cc(Cl)cc45)ncc3F)C2)n[nH]1 [Compound 59],0.002
9,CCn1nccc1C(=O)N[C@@H]1CCC[C@H](Nc2nc(-c3c[nH]c4c(F)cc(Cl)cc34)ncc2F)C1 [Compound 60],0.002
10,Cn1nccc1C(=O)N[C@@H]1CCC[C@H](Nc2nc(-c3c[nH]c4c(F)cc(Cl)cc34)ncc2F)C1 [Compound 61],0.001
11,CN1CCC[C@@H]1C(=O)N[C@@H]1CCC[C@H](Nc2nc(-c3c[nH]c4c(F)cc(Cl)cc34)ncc2F)C1 [Compound 62],0.73
12,O=C(N[C@@H]1CCC[C@H](Nc2nc(-c3c[nH]c4c(F)cc(Cl)cc34)ncc2F)C1)c1c[nH]cn1 [Compound 63],0.002
13,Cn1cncc1C(=O)N[C@@H]1CCC[C@H](Nc2nc(-c3c[nH]c4c(F)cc(Cl)cc34)ncc2F)C1 [Compound 64],0.003
14,Nc1nccc(C(=O)N[C@@H]2CCC[C@H](Nc3nc(-c4c[nH]c5c(F)cc(Cl)cc45)ncc3F)C2)n1 [Compound 65],0.003
15,Nc1cc(C(=O)N[C@@H]2CCC[C@H](Nc3nc(-c4c[nH]c5c(F)cc(Cl)cc45)ncc3F)C2)ncn1 [Compound 66],0.003
16,Cn1cc(C(=O)N[C@@H]2CCC[C@H](Nc3nc(-c4c[nH]c5c(F)cc(Cl)cc45)ncc3F)C2)nn1 [Compound 67],0.012
17,Cn1nc(N)cc1C(=O)N[C@@H]1CCC[C@H](Nc2nc(-c3c[nH]c4c(F)cc(Cl)cc34)ncc2F)C1 [Compound 68],0.003

# Tested on: not given
# Assay: not given
# Conditions: not given
row,Compound,melting point [°C]
1,Cn1cc(C(=O)N[C@@H]2CCC[C@H](Nc3nc(-c4c[nH]c5c(F)cc(Cl)cc45)ncc3F)C2)cn1 [Compound 52],286.8
2,O=C(N[C@@H]1CCC[C@H](Nc2nc(-c3c[nH]c4c(F)cc(Cl)cc34)ncc2F)C1)c1cncnc1 [Compound 53],> 300
3,Nc1n[nH]c(C(=O)N[C@@H]2CCC[C@H](Nc3nc(-c4c[nH]c5c(F)cc(Cl)cc45)ncc3F)C2)n1 [Compound 54],293.5
4,O=C(N[C@@H]1CCC[C@H](Nc2nc(-c3c[nH]c4c(F)cc(Cl)cc34)ncc2F)C1)c1ncc(F)cc1F [Compound 55],> 300
5,CN(C)c1ccnc(C(=O)N[C@@H]2CCC[C@H](Nc3nc(-c4c[nH]c5c(F)cc(Cl)cc45)ncc3F)C2)c1 [Compound 56],281.8
6,Cn1cc(Br)nc1C(=O)N[C@@H]1CCC[C@H](Nc2nc(-c3c[nH]c4c(F)cc(Cl)cc34)ncc2F)C1 [Compound 57],214.9
7,O=C(N[C@@H]1CCC[C@H](Nc2nc(-c3c[nH]c4c(F)cc(Cl)cc34)ncc2F)C1)c1ncc[nH]1 [Compound 58],> 300
8,Nc1cc(C(=O)N[C@@H]2CCC[C@H](Nc3nc(-c4c[nH]c5c(F)cc(Cl)cc45)ncc3F)C2)n[nH]1 [Compound 59],245.2
9,CCn1nccc1C(=O)N[C@@H]1CCC[C@H](Nc2nc(-c3c[nH]c4c(F)cc(Cl)cc34)ncc2F)C1 [Compound 60],> 300
10,Cn1nccc1C(=O)N[C@@H]1CCC[C@H](Nc2nc(-c3c[nH]c4c(F)cc(Cl)cc34)ncc2F)C1 [Compound 61],> 300
11,CN1CCC[C@@H]1C(=O)N[C@@H]1CCC[C@H](Nc2nc(-c3c[nH]c4c(F)cc(Cl)cc34)ncc2F)C1 [Compound 62],196.5
12,O=C(N[C@@H]1CCC[C@H](Nc2nc(-c3c[nH]c4c(F)cc(Cl)cc34)ncc2F)C1)c1c[nH]cn1 [Compound 63],245
13,Cn1cncc1C(=O)N[C@@H]1CCC[C@H](Nc2nc(-c3c[nH]c4c(F)cc(Cl)cc34)ncc2F)C1 [Compound 64],291.8
14,Nc1nccc(C(=O)N[C@@H]2CCC[C@H](Nc3nc(-c4c[nH]c5c(F)cc(Cl)cc45)ncc3F)C2)n1 [Compound 65],261.7
15,Nc1cc(C(=O)N[C@@H]2CCC[C@H](Nc3nc(-c4c[nH]c5c(F)cc(Cl)cc45)ncc3F)C2)ncn1 [Compound 66],152.4
16,Cn1cc(C(=O)N[C@@H]2CCC[C@H](Nc3nc(-c4c[nH]c5c(F)cc(Cl)cc45)ncc3F)C2)nn1 [Compound 67],283
17,Cn1nc(N)cc1C(=O)N[C@@H]1CCC[C@H](Nc2nc(-c3c[nH]c4c(F)cc(Cl)cc34)ncc2F)C1 [Compound 68],267.2
